Tests used:
[1] = system: Hela cell line; assay: Cytotoxicity MTS assay, Hela cell line; type: cell-based; conditions: for OD490 Mean / OD490 Well 1 / OD490 Well 2 / OD490 Well 3: Hela cell line;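 for OD490 Mean: blank control DMSO at 0.025% final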;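 for OD490 Well 1: blank control DMSO at 0.025% final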;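 for OD490 Well 2: blank control DMSO at 0.025% final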;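 for OD490 Well 3: blank control DMSO at 0.025% final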
Method in brief: (§1)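 Absorbance at 490 nm after a 2 h MTS step at 37 °C gave cell viability. Before that, cells plated at 1000/well were treated for 24 h with compounds spanning 0.5–100 µM (final). IC50 values were fitted by non-linear regression of percent viability versus concentration.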

[2] = system: L929 cell line; assay: Cytotoxicity MTS assay, L929 cell line; type: cell-based; conditions: for OD490 values, Mean / OD490 values, Well 1 / OD490 values, Well 2 / OD490 values, Well 3: L929 cell line
Method in brief: as §1

COC(=O)c1[nH]c(C2NC(=S)NC(C)=C2C(=O)c2ccccc2)c(C(=O)OC)c1C (centres unmarked) [D14]
OD490 Mean ([1]; 0.5μM, first assay): 2.3692 | OD490 Well 1 ([1]; 0.5μM, first assay): 2.2024 | OD490 Well 2 ([1]; 0.5μM, first assay): 2.5165 | OD490 Well 3 ([1]; 0.5μM, first assay): 2.3887 | OD490 Mean ([1]; 0.5μM, second assay): 2.4577 | OD490 Well 1 ([1]; 0.5μM, second assay): 2.5398 | OD490 Well 2 ([1]; 0.5μM, second assay): 2.4478 | OD490 Well 3 ([1]; 0.5μM, second assay): 2.3854 | OD490 Mean ([1]; 0.5μM, third assay): 2.5210 | OD490 Well 1 ([1]; 0.5μM, third assay): 2.5365 | OD490 Well 2 ([1]; 0.5μM, third assay): 2.6899 | OD490 Well 3 ([1]; 0.5μM, third assay): 2.3365 | OD490 Mean ([1]; 1μM, first assay): 2.4838 | OD490 Well 1 ([1]; 1μM, first assay): 2.3561 | OD490 Well 2 ([1]; 1μM, first assay): 2.5456 | OD490 Well 3 ([1]; 1μM, first assay): 2.5498 | OD490 Mean ([1]; 1μM, second assay): 2.4907 | OD490 Well 1 ([1]; 1μM, second assay): 2.5353 | OD490 Well 2 ([1]; 1μM, second assay): 2.4889 | OD490 Well 3 ([1]; 1μM, second assay): 2.4478 | OD490 Mean ([1]; 1μM, third assay): 2.5269 | OD490 Well 1 ([1]; 1μM, third assay): 2.4563 | OD490 Well 2 ([1]; 1μM, third assay): 2.5587 | OD490 Well 3 ([1]; 1μM, third assay): 2.5656 | OD490 Mean ([1]; 10μM, first assay): 2.5226 | OD490 Well 1 ([1]; 10μM, first assay): 2.5006 | OD490 Well 2 ([1]; 10μM, first assay): 2.6290 | OD490 Well 3 ([1]; 10μM, first assay): 2.4381 | OD490 Mean ([1]; 10μM, second assay): 2.5413 | OD490 Well 1 ([1]; 10μM, second assay): 2.4987 | OD490 Well 2 ([1]; 10μM, second assay): 2.5687 | OD490 Well 3 ([1]; 10μM, second assay): 2.5565 | OD490 Mean ([1]; 10μM, third assay): 2.5164 | OD490 Well 1 ([1]; 10μM, third assay): 2.5321 | OD490 Well 2 ([1]; 10μM, third assay): 2.4598 | OD490 Well 3 ([1]; 10μM, third assay): 2.5574 | OD490 Mean ([1]; 25μM, first assay): 2.4708 | OD490 Well 1 ([1]; 25μM, first assay): 2.2633 | OD490 Well 2 ([1]; 25μM, first assay): 2.6154 | OD490 Well 3 ([1]; 25μM, first assay): 2.5338 | OD490 Mean ([1]; 25μM, second assay): 2.5615 | OD490 Well 1 ([1]; 25μM, second assay): 2.5835 | OD490 Well 2 ([1]; 25μM, second assay): 2.5478 | OD490 Well 3 ([1]; 25μM, second assay): 2.5532 | OD490 Mean ([1]; 25μM, third assay): 2.4824 | OD490 Well 1 ([1]; 25μM, third assay): 2.3365 | OD490 Well 2 ([1]; 25μM, third assay): 2.4587 | OD490 Well 3 ([1]; 25μM, third assay): 2.6521 | OD490 Mean ([1]; 50μM, first assay): 2.7660 | OD490 Well 1 ([1]; 50μM, first assay): 2.6176 | OD490 Well 2 ([1]; 50μM, first assay): 2.8052 | OD490 Well 3 ([1]; 50μM, first assay): 2.8752 | OD490 Mean ([1]; 50μM, second assay): 2.6584 | OD490 Well 1 ([1]; 50μM, second assay): 2.6324 | OD490 Well 2 ([1]; 50μM, second assay): 2.5687 | OD490 Well 3 ([1]; 50μM, second assay): 2.7741 | OD490 Mean ([1]; 50μM, third assay): 2.5680 | OD490 Well 1 ([1]; 50μM, third assay): 2.5574 | OD490 Well 2 ([1]; 50μM, third assay): 2.4768 | OD490 Well 3 ([1]; 50μM, third assay): 2.6698 | OD490 Mean ([1]; 100μM, first assay): 2.5211 | OD490 Well 1 ([1]; 100μM, first assay): 2.7163 | OD490 Well 2 ([1]; 100μM, first assay): 2.4550 | OD490 Well 3 ([1]; 100μM, first assay): 2.3919 | OD490 Mean ([1]; 100μM, second assay): 2.5251 | OD490 Well 1 ([1]; 100μM, second assay): 2.6987 | OD490 Well 2 ([1]; 100μM, second assay): 2.4465 | OD490 Well 3 ([1]; 100μM, second assay): 2.4301 | OD490 Mean ([1]; 100μM, third assay): 2.6068 | OD490 Well 1 ([1]; 100μM, third assay): 2.6689 | OD490 Well 2 ([1]; 100μM, third assay): 2.5641 | OD490 Well 3 ([1]; 100μM, third assay): 2.5874 | IC50 ([1]; MTS assay, 24 h exposure): > 150 µM | OD490 values, Mean ([2]; 1μM, first assay): 1.2798 | OD490 values, Well 1 ([2]; 1μM, first assay): 1.2932 | OD490 values, Well 2 ([2]; 1μM, first assay): 1.2928 | OD490 values, Well 3 ([2]; 1μM, first assay): 1.2533 | OD490 values, Mean ([2]; 1μM, second assay): 1.4907 | OD490 values, Well 1 ([2]; 1μM, second assay): 1.4325 | OD490 values, Well 2 ([2]; 1μM, second assay): 1.3987 | OD490 values, Well 3 ([2]; 1μM, second assay): 1.6410 | OD490 values, Mean ([2]; 1μM, third assay): 1.6023 | OD490 values, Well 1 ([2]; 1μM, third assay): 1.5874 | OD490 values, Well 2 ([2]; 1μM, third assay): 1.6622 | OD490 values, Well 3 ([2]; 1μM, third assay): 1.5574 | OD490 values, Mean ([2]; 1.5μM, first assay): 1.2729 | OD490 values, Well 1 ([2]; 1.5μM, first assay): 1.2563 | OD490 values, Well 2 ([2]; 1.5μM, first assay): 1.3177 | OD490 values, Well 3 ([2]; 1.5μM, first assay): 1.2448 | OD490 values, Mean ([2]; 1.5μM, second assay): 1.4657 | OD490 values, Well 1 ([2]; 1.5μM, second assay): 1.4258 | OD490 values, Well 2 ([2]; 1.5μM, second assay): 1.4302 | OD490 values, Well 3 ([2]; 1.5μM, second assay): 1.5412 | OD490 values, Mean ([2]; 1.5μM, third assay): 1.5678 | OD490 values, Well 1 ([2]; 1.5μM, third assay): 1.5254 | OD490 values, Well 2 ([2]; 1.5μM, third assay): 1.5988 | OD490 values, Well 3 ([2]; 1.5μM, third assay): 1.5793 | OD490 values, Mean ([2]; 10μM, first assay): 1.2551 | OD490 values, Well 1 ([2]; 10μM, first assay): 1.2039 | OD490 values, Well 2 ([2]; 10μM, first assay): 1.3650 | OD490 values, Well 3 ([2]; 10μM, first assay): 1.1963 | OD490 values, Mean ([2]; 10μM, second assay): 1.4237 | OD490 values, Well 1 ([2]; 10μM, second assay): 1.3365 | OD490 values, Well 2 ([2]; 10μM, second assay): 1.5325 | OD490 values, Well 3 ([2]; 10μM, second assay): 1.4022 | OD490 values, Mean ([2]; 10μM, third assay): 1.5660 | OD490 values, Well 1 ([2]; 10μM, third assay): 1.5254 | OD490 values, Well 2 ([2]; 10μM, third assay): 1.6200 | OD490 values, Well 3 ([2]; 10μM, third assay): 1.5525 | OD490 values, Mean ([2]; 25μM, first assay): 1.1670 | OD490 values, Well 1 ([2]; 25μM, first assay): 1.1764 | OD490 values, Well 2 ([2]; 25μM, first assay): 1.2795 | OD490 values, Well 3 ([2]; 25μM, first assay): 1.0451 | OD490 values, Mean ([2]; 25μM, second assay): 1.2993 | OD490 values, Well 1 ([2]; 25μM, second assay): 1.3065 | OD490 values, Well 2 ([2]; 25μM, second assay): 1.2547 | OD490 values, Well 3 ([2]; 25μM, second assay): 1.3366 | OD490 values, Mean ([2]; 25μM, third assay): 1.5294 | OD490 values, Well 1 ([2]; 25μM, third assay): 1.4424 | OD490 values, Well 2 ([2]; 25μM, third assay): 1.5235 | OD490 values, Well 3 ([2]; 25μM, third assay): 1.6222 | OD490 values, Mean ([2]; 50μM, first assay): 1.0826 | OD490 values, Well 1 ([2]; 50μM, first assay): 0.8914 | OD490 values, Well 2 ([2]; 50μM, first assay): 1.1616 | OD490 values, Well 3 ([2]; 50μM, first assay): 1.1948 | OD490 values, Mean ([2]; 50μM, second assay): 1.1536 | OD490 values, Well 1 ([2]; 50μM, second assay): 1.1241 | OD490 values, Well 2 ([2]; 50μM, second assay): 1.2101 | OD490 values, Well 3 ([2]; 50μM, second assay): 1.1265 | OD490 values, Mean ([2]; 50μM, third assay): 1.3855 | OD490 values, Well 1 ([2]; 50μM, third assay): 1.3665 | OD490 values, Well 2 ([2]; 50μM, third assay): 1.3874 | OD490 values, Well 3 ([2]; 50μM, third assay): 1.4025 | OD490 values, Mean ([2]; 100μM, first assay): 1.0433 | OD490 values, Well 1 ([2]; 100μM, first assay): 0.7506 | OD490 values, Well 2 ([2]; 100μM, first assay): 1.0796 | OD490 values, Well 3 ([2]; 100μM, first assay): 1.2998 | OD490 values, Mean ([2]; 100μM, second assay): 1.1143 | OD490 values, Well 1 ([2]; 100μM, second assay): 1.1121 | OD490 values, Well 2 ([2]; 100μM, second assay): 1.1285 | OD490 values, Well 3 ([2]; 100μM, second assay): 1.1022 | OD490 values, Mean ([2]; 100μM, third assay): 1.3039 | OD490 values, Well 1 ([2]; 100μM, third assay): 1.3251 | OD490 values, Well 2 ([2]; 100μM, third assay): 1.3325 | OD490 values, Well 3 ([2]; 100μM, third assay): 1.2542 | IC50 ([2]; MTS assay, 24 h exposure, ordinary fibroblast, not cancer cells): 137 µM

From article PMC8037182, “Solvothermal Synthesis of Multiple Dihydropyrimidinones at a Time as Inhibitors of Eg5” (Molecules, 2021)
